# Reference: ChEMBL document CHEMBL1153384, “Synthesis, antimalarial activity, and preclinical pharmacology of a novel series of 4'-fluoro and 4'-chloro analogues of amodiaquine. Identification of a suitable "back-up" compound for N-tert-butyl isoquine” (J Med Chem, 2009)
# What was measured:
# [1] = Toxicity in po dosed mouse assessed as drug level causing no observed adverse effects administered as once daily for 4 days; assay type: organism-based; details: in vivo, read-out: Activity
# [2] = Elimination half life in mouse at 10 mg/kg, po administered as single dose; assay type: ADME, organism-based; set-up: dose 10 mg/kg, route oral; details: in vivo, read-out: beta t1/2 (converted)
# Heme [3] = experiment: Binding affinity to heme assessed as binding constant for stepwise binding of 2 molecules of heme to 1 equivalent of drug in presence of 40% DMSO by UV-visible spectroscopy
# Plasmodium falciparum [4] = experiment: Antimalarial activity against chloroquine-resistant Plasmodium falciparum TM4; assay type: functional, organism-based
# Cytochrome P450 1A2 = biological target: T1, Cytochrome P450 1A2 (Homo sapiens, UniProt P05177); experiment: Inhibition of human CYP1A2; assay type: ADME
# T1 sequence (P05177 whole entry): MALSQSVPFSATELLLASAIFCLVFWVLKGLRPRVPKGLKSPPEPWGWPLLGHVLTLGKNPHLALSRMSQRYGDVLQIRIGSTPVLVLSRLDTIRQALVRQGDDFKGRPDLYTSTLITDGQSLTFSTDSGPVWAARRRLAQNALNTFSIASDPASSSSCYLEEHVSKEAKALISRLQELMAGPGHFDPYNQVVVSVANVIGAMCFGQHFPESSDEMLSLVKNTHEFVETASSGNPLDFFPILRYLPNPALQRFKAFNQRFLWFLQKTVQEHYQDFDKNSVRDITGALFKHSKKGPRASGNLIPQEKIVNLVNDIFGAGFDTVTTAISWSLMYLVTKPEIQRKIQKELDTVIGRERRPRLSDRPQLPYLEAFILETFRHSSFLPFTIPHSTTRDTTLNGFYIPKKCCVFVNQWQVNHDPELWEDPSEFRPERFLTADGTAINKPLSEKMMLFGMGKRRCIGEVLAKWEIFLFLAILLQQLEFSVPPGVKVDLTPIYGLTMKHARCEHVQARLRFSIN
# [5] = Toxicity against Wistar rat hepatocytes after 6 hrs by trypan blue exclusion method; assay type: cell-based, Hepatocyte; details: read-out: TC50
# Plasmodium yoelii [6] = experiment: Antimalarial activity as reduced parasitaemia against Plasmodium yoelii 17X infected CD1 mice (Mus musculus) perorally dosed daily for 4 days; assay type: functional; details: po, 96 h
# Plasmodium falciparum [7] = experiment: Antimalarial activity against chloroquine-resistant Plasmodium falciparum TM6; assay type: functional, organism-based
# Rattus norvegicus [8] = experiment: Biodistribution in Wistar rat assessed as remaining [3H]labeled drug level at 54 umol/kg, iv after 48 hrs; assay type: ADME, organism-based; details: in vivo
# [9] = Drug metabolism in cannulated Wistar rat assessed as urinary excretion of [3H]labeled drug level at 54 umol/kg, iv after 5 hrs; assay type: ADME, organism-based, Urine; details: in vivo
# Cytochrome P450 3A4 [10] = biological target: T2, Cytochrome P450 3A4 (Homo sapiens, UniProt P08684); experiment: Inhibition of human CYP3A4 using PPR substrate; assay type: ADME
# T2 sequence (P08684 whole entry): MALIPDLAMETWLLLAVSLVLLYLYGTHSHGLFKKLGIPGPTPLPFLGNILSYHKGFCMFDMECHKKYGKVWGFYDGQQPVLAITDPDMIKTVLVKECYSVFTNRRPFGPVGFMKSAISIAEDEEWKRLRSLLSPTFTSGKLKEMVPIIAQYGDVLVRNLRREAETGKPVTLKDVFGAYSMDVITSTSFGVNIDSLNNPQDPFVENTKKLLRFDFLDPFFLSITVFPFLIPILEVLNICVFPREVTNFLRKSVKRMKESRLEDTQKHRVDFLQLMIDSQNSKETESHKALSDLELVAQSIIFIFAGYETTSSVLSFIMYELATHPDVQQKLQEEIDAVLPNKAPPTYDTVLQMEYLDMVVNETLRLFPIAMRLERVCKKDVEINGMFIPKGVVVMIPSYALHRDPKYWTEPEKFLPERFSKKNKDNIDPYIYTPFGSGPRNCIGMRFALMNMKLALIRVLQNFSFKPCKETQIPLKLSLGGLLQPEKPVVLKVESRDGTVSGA
# [11] = Biodistribution in cannulated Wistar rat urine assessed as [3H]labeled drug level at 54 umol/kg, iv after 5 hrs; assay type: ADME, organism-based; details: in vivo
# [12] = (§1) Partition coefficient, log P of the compound; assay type: physicochemical; details: octanol/water
# Plasmodium falciparum [13] = experiment: Antimalarial activity against chloroquine-resistant Plasmodium falciparum J164; assay type: functional, organism-based
# Cytochrome P450 2C9 = Cytochrome P450 2C9 (Homo sapiens, UniProt P11712); experiment: Inhibition of human CYP2C9; assay type: ADME
# Cytochrome P450 2C9, sequence (P11712 whole entry): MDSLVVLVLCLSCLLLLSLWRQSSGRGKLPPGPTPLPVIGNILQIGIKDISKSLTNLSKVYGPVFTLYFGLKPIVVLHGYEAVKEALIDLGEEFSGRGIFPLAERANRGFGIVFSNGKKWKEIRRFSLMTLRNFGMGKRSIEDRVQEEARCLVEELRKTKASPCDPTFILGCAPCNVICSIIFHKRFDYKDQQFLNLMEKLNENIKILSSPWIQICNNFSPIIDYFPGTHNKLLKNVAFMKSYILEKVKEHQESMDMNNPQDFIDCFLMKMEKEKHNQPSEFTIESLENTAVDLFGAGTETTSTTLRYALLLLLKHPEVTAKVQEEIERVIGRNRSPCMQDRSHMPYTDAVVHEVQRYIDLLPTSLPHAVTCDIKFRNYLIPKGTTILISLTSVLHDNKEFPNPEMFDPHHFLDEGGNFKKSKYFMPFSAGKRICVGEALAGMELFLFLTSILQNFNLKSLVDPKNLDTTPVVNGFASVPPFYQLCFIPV
# Cytochrome P450 2C8 = biological target: T3, Cytochrome P450 2C8 (Homo sapiens, UniProt P10632); experiment: Inhibition of human CYP2C8; assay type: ADME
# T3 sequence (P10632 whole entry): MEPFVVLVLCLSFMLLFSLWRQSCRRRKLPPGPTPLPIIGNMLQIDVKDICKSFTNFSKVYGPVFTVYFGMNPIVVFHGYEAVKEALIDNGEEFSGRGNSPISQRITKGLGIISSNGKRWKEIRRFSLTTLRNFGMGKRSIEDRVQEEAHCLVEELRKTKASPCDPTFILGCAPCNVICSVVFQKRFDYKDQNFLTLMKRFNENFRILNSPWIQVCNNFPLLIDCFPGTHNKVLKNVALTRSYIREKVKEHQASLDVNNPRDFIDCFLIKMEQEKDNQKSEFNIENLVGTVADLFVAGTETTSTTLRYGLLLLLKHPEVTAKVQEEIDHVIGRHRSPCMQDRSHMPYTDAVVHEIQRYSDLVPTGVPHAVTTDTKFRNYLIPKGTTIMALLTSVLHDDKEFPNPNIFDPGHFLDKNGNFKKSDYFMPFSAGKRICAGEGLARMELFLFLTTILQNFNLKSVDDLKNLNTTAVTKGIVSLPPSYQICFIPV
# [14] = Biodistribution in cannulated Wistar rat bile assessed as [3H]labeled drug level at 54 umol/kg, iv after 5 hrs; assay type: ADME, organism-based; details: in vivo
# Cytochrome P450 2D6 = Cytochrome P450 2D6 (Homo sapiens, UniProt P10635); experiment: Inhibition of human CYP2D6; assay type: ADME
# Cytochrome P450 2D6, sequence (P10635 whole entry): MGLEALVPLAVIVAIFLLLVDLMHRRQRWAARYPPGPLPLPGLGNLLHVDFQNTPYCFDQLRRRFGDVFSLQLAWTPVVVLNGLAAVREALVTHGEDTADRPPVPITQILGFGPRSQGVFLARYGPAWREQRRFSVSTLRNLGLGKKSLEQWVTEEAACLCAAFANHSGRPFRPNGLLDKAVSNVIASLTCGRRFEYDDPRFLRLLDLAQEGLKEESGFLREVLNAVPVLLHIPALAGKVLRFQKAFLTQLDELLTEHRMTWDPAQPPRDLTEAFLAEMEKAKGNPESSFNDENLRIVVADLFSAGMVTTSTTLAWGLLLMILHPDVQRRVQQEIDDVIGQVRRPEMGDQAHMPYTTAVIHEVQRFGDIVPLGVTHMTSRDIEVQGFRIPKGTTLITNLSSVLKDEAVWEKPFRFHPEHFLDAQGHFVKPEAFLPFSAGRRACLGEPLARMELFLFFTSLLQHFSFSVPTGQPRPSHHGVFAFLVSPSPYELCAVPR
# Plasmodium falciparum [15] = experiment: Antimalarial activity against […] Plasmodium falciparum PH3; assay type: functional, organism-based
# Plasmodium falciparum [16] = experiment: Antimalarial activity against […] Plasmodium falciparum Dd2; assay type: functional, organism-based
# Plasmodium falciparum [17] = experiment: Antimalarial activity against chloroquine-sensitive Plasmodium falciparum HB3; assay type: functional, organism-based
# Lung = experiment: Biodistribution in Wistar rat lung assessed as [3H]labeled drug level at 54 umol/kg, iv after 24 hrs; assay type: ADME, organism-based; details: in vivo
# [18] = Toxicity in po dosed mouse assessed as drug level causing no observed adverse effects administered as single dose; assay type: organism-based; details: in vivo, read-out: Activity
# [19] = Clearance in iv dosed mouse; assay type: ADME, organism-based; details: in vivo
# Rattus norvegicus [20] = experiment: Biodistribution in Wistar rat assessed as remaining [3H]labeled drug level at 54 umol/kg, iv after 168 hrs; assay type: ADME, organism-based; details: in vivo
# Plasmodium falciparum [21] = experiment: Antimalarial activity against chloroquine-sensitive Plasmodium falciparum 3D7; assay type: functional, organism-based
# [22] = Oral bioavailability in rat; assay type: ADME, organism-based; details: in vivo
# Plasmodium yoelii [23] = experiment: Antimalarial activity as minimal concentration for parasite elimination at day 23 against Plasmodium yoelii 17X intravenously inoculated CD1 mice (Mus musculus) dosed 1 hrs post infection then daily for 4 days
# Rattus norvegicus [24] = experiment: Biodistribution in Wistar rat assessed as remaining [3H]labeled drug level at 54 umol/kg, iv after 5 hrs; assay type: ADME, organism-based; details: in vivo
# [25] = Distribution coefficient, log D at pH 7.4; details: octanol/water
# Rattus norvegicus [26] = experiment: Metabolic stability in Wistar rat assessed as 2-[5-(7-Chloro-quinolin-4-ylamino)-2-fluoro-benzylamino]-2-methyl-propionic acids level at 54 umol/kg, iv administered as [3H]labeled drug after 5 hrs; assay type: ADME, organism-based; details: in vivo
# Heme [27] = experiment: Binding affinity to heme assessed as binding constant for stepwise binding of 2 equivalent of drug to 1 molecule of heme in presence of 40% DMSO by UV-visible spectroscopy
# Rattus norvegicus [28] = experiment: Drug elimination in Wistar rat assessed as [3H]labeled drug level at 54 umol/kg, iv after 24 hrs; assay type: ADME, organism-based; details: in vivo
# [29] = as §1; assay type: physicochemical; details: octanol/water; remark: listed apart in the source
# Kidney = experiment: Biodistribution in Wistar rat kidney assessed as [3H]labeled drug level at 54 umol/kg, iv after 24 hrs; assay type: ADME, organism-based; details: in vivo
# Liver = experiment: Biodistribution in cannulated Wistar rat liver assessed as [3H]labeled drug level at 54 umol/kg, iv after 5 hrs; assay type: ADME, organism-based; details: in vivo
# [30] = Oral bioavailability in mouse; assay type: ADME, organism-based; details: in vivo
# Cytochrome P450 3A4 [31] = biological target: T2, Cytochrome P450 3A4; experiment: Inhibition of human CYP3A4 using DEF substrate
compound,measurement,setting,value
CC(C)(C)NCc1cc(Nc2ccnc3cc(Cl)ccc23)ccc1F,NOAEL at 96 h,[1],100 mg/kg
same,half-life,[2],420 min
same,log Ks,Heme [3],5.68
same,IC50,Plasmodium falciparum [4],17.3 nM
same,IC50,Cytochrome P450 1A2,8.8 µM
same,CC50 at 6 h,[5],385 µM
same,ED50,Plasmodium yoelii [6],7.7 mg/kg
same,ED90,Plasmodium yoelii [6],10.6 mg/kg
same,IC50,Plasmodium falciparum [7],21.9 nM
same,Activity,Rattus norvegicus [8],72.79%
same,Activity,[9],8.06%
same,IC50,Cytochrome P450 3A4 [10],Active
same,Activity,[11],8.06 %ID
same,logP,[12],5.15
same,IC50,Plasmodium falciparum [13],29.2 nM
same,IC50,Cytochrome P450 2C9,52 µM
same,IC50,Cytochrome P450 2C8,9.8 µM
same,Activity,[14],9.16 %ID
same,IC50,Cytochrome P450 2D6,300 nM
same,IC50,Plasmodium falciparum [15],25.8 nM
same,IC50,Plasmodium falciparum [16],22.4 nM
same,IC50,Plasmodium falciparum [17],14.6 nM
same,Drug uptake,Lung,1.17 %ID
same,NOAEL,[18],300 mg/kg
same,clearance,[19],40.4 mL/min/kg
same,Activity,Rattus norvegicus [20],1.22%
same,IC50,Plasmodium falciparum [21],12.1 nM
same,bioavailability,[22],100%
same,Activity,Plasmodium yoelii [23],>40 mg/kg
same,Activity,Rattus norvegicus [24],38.54%
same,logD,[25],2.4
same,Activity,Rattus norvegicus [26],14.22%
same,log Ks,Heme [27],5.45
same,Activity,Rattus norvegicus [28],51.36%
same,logP,[29],4.74
same,Drug uptake,Kidney,1.48 %ID
same,Drug uptake,Liver,17.49 %ID
same,bioavailability,[30],37%
same,IC50,Cytochrome P450 3A4 [31],> 100 µM
